Results published in patent publication US20150258059A1, “ANTIMICROBIAL AND RADIOPROTECTIVE COMPOUNDS” (BioDiem, Ltd, priority 2001, published 2015).
In brackets after ≈: the same amount, converted by molar mass. Like-named read-outs stand apart in the source and are kept apart here. Marks after values point to notes of the source that are not given here.

Experiments:
Shigella sonnei B-720 = experiment: Sensitivity of strains: suppression of growth; format: cell-based; details: Compound (1) 1.0%; antibiotics disc method
[1] = test system: Salmonella paratyphi M-16469; experiment: Sensitivity of strains: suppression of growth; format: cell-based; details: Compound (1) 1.0%; antibiotics disc method
Acinetobacter B-681 = experiment: Sensitivity of strains: suppression of growth; format: cell-based; details: Compound (1) 1.0%; antibiotics disc method
Acinetobacter B-677 = experiment: Sensitivity of strains: suppression of growth; format: cell-based; details: Compound (1) 1.0%; antibiotics disc method
Alkaligenes sp. B-689 = experiment: Sensitivity of strains: suppression of growth; format: cell-based; details: Compound (1) 1.0%; antibiotics disc method
[2] = test system: Klebsiella pneumoniae M-A21; experiment: Sensitivity of strains: suppression of growth; format: cell-based; details: Compound (1) 1.0%; antibiotics disc method
Bacillus sp. B-575 = experiment: Sensitivity of strains: suppression of growth; format: cell-based; details: Compound (1) 1.0%; antibiotics disc method; note: key: + sensitive strains; + moderately sensitive strains; − stable strains
[3] = test system: γ-hemolytic streptococcus B-672; experiment: Sensitivity of strains: suppression of growth; format: cell-based; details: Compound (1) 1.0%; antibiotics disc method
[4] = test system: β-hemolytic streptococcus B-624; experiment: Sensitivity of strains: suppression of growth; format: cell-based; details: Compound (1) 1.0%; antibiotics disc method
Geotrichum M-158 = experiment: Sensitivity of pathogenic fungi; format: cell-based; details: Inoculation 10^5
[5] = test system: Streptococcus pneumonia ATCC49619; experiment: NCCLS broth microdilution MIC/MBC; format: cell-based; details: Table 9, 35° C., 24 hours
[6] = test system: Corynebacterium xerosis RMIT; experiment: NCCLS broth microdilution MIC/MBC; format: cell-based; details: for MIC: Corynebacterium xerosis
Haemophilus influenzae = experiment: NCCLS broth microdilution MIC/MBC; format: cell-based
Epidermophyton floccosum [7] = experiment: NCCLS broth macro-dilution MIC/MFC (RPMI); format: cell-based; details: Table 10, 7 day, 30° C.
Candida albicans = experiment: NCCLS broth macro-dilution MIC/MFC (RPMI); format: cell-based; details: Table 10, 4 day, 30° C.
M. catarrhalis = experiment: Antibacterial activity in the presence of blood, macrodilution; format: cell-based; details: for MIC: Moraxella catarrhalis
S. aureus = experiment: MIC in increasing concentrations of plasma; format: cell-based; details: Staphylococcus aureus
Excerpt: (§1) […]. Serum binding is significant in drug distribution and bioavailability.
(§2) […]. Bactericidal activity is much more affected than inhibitory activity.

Streptococcus pyogenes = experiment: MIC in increasing concentrations of plasma; format: cell-based
Excerpt: as §1, §2

F. chlamydosporum = experiment: M38-P microdilution MIC/MFC; format: cell-based; details: Table 16, 48 h, 35° C.
Rhizopus stoloniefer = experiment: M38-P microdilution MIC/MFC; format: cell-based; details: Table 16, 48 h, 35° C.
Epidermophyton floccosum [8] = experiment: M38-P microdilution MIC/MFC; format: cell-based; details: Table 16, Dermatophytes
[9] = test system: Staphylococci epidermidis B-513; experiment: Agar diffusion assay
[10] = test system: Salmonella typhimurium M-727; experiment: Agar diffusion assay
Bacillus subtilis = experiment: Rate of kill, viable counts; details: in 2 h
[11] = test system: Acinetobacter calcoaceticus; experiment: Rate of kill, viable counts; details: in 6 h
[12] = test system: Enterococcus faecalis museum strain; experiment: Impregnated agar serial double dilutions; details: meat peptone agar
[13] = test system: Klebsiella pneumoniae strain 312; experiment: Impregnated agar serial double dilutions; details: meat peptone agar
Staphylococcus aureus = experiment: Agar plug diffusion, zone of retardation; details: plug impregnated at 0.5%
Enterococcus faecalis = experiment: Agar plug diffusion, zone of retardation; details: plug impregnated at 0.5%
Klebsiella pneumoniae = experiment: Agar plug diffusion, zone of retardation; details: plug impregnated at 0.5%
C. jejuni 541-3 = experiment: MIC/MMC against clinical strains of Campylobacter spp.; details: Table 18; clinical strain isolated from humans
C. laniolis 54/6 = experiment: as above; details: Table 18; clinical strain isolated from humans
[14] = Table 19, 24 H, 35° C., O2-MICRO METHOD

In the case of `C/C(=C\c1ccc2c(c1)OCO2)[N+](=O)[O-]` [Compound (1)], the “Suppression of Growth (+/−)” value (Shigella sonnei B-720) is reported as “+”, the “Suppression of Growth (+/−)” value [1] is reported as “+” and the “Suppression of Growth (+/−)” value (Acinetobacter B-681) is reported as “+”. The “Suppression of Growth (+/−)” value (Acinetobacter B-677) was “+”, the “Suppression of Growth (+/−)” value (Alkaligenes sp. B-689) was “+” and the “Suppression of Growth (+/−)” value [2] was “+”. The “Suppression of Growth (+/−)” value (Bacillus sp. B-575) was “+”, the “Suppression of Growth (+/−)” value [3] was “+” and the “Suppression of Growth (+/−)” value [4] was “+”. For the same compound, the “Number of microbes: Growth” value (Geotrichum M-158; 0.1%) was 0, the “Number of microbes: Retardation” value (Geotrichum M-158; 0.1%) was 10^4 and the “Number of microbes: Growth” value (Geotrichum M-158; 0.5%) was 0. For the same compound, the “Number of microbes: Retardation” value (Geotrichum M-158; 0.5%) was 10^5, the “Number of microbes: Growth” value (Geotrichum M-158; 2.0%) was 0 and the “Number of microbes: Retardation” value (Geotrichum M-158; 2.0%) was 10^5. The MIC ([5]; Streptococcus pneumoniae, ATCC49619) was 16 µg/mL (≈ 77.2 µM), the MMC [5] was 32 µg/mL and the MIC ([6]; Table 9, 35° C., 24 hours) was 32.2 µg/mL (≈ 155 µM). It also gave an MIC ([6]; Table 17, 2 or 3 replicates) of 32 µg/mL (≈ 154 µM), an MMC ([6]; Table 9, 35° C., 24 hours) of 32.16 µg/mL and an MMC ([6]; Table 17, 2 or 3 replicates) of 32 µg/mL. The MIC (Haemophilus influenzae; Haemophilus influenzae, Table 9, 35° C., 24 hours, read-out: MIC) was 0.125 µg/mL (≈ 0.603 µM), the MIC (Haemophilus influenzae; Haemophilus influenzae, Table 17, 2 or 3 replicates, read-out: MIC) was 0.125 µg/mL (≈ 0.603 µM) and the MMC (Haemophilus influenzae; Table 9, 35° C., 24 hours) was 0.125 µg/mL. It also gave an MMC (Haemophilus influenzae; Table 17, 2 or 3 replicates) of 0.125 µg/mL, an MIC (Haemophilus influenzae; [14]) of 0.125 µg/mL (≈ 0.603 µM) and an MMC (Haemophilus influenzae; [14]) of 0.125 µg/mL. For the same compound, the MIC (Epidermophyton floccosum [7]; Epidermophyton floccosum, 168 h) was 0.5 µg/mL (≈ 2.41 µM), the MMC (Epidermophyton floccosum [7]) was 16 µg/mL and the MIC (Candida albicans; Candida albicans, 96 h) was 8 µg/mL (≈ 38.6 µM). It also gave an MMC (Candida albicans) of 8 µg/mL, an MMC (M. catarrhalis; 5% blood) of 8 µg/mL and an MMC (M. catarrhalis; 10% plasma) of 8 µg/mL. The MIC (M. catarrhalis; 5% blood) was 4 µg/mL, the MIC (M. catarrhalis; 10% plasma) was 8 µg/mL and the MIC (M. catarrhalis; — (no plasma or blood)) was 32 µg/mL. It also gave an MIC (S. aureus; 0% plasma in MHB) of 4 µg/mL (≈ 19.3 µM), an MIC (S. aureus; 1% plasma in MHB) of 4 µg/mL (≈ 19.3 µM) and an MIC (S. aureus; 2.5% plasma in MHB) of 8 µg/mL (≈ 38.6 µM). It also gave an MIC (S. aureus; 5% plasma in MHB) of 8 µg/mL (≈ 38.6 µM), an MIC (S. aureus; 10% plasma in MHB) of 16 µg/mL (≈ 77.2 µM) and an MIC (S. aureus; 20% plasma in MHB) of 32 µg/mL (≈ 154 µM). For the same compound, the MIC (S. aureus; 50% plasma in MHB) was 128 µg/mL (≈ 618 µM), the MIC (S. aureus; 100% plasma in MHB) was 128 µg/mL (≈ 618 µM) and the MIC (Streptococcus pyogenes) was 256 µg/mL (≈ 1240 µM). The MIC (Streptococcus pyogenes; 0% plasma in MHB, read-out: MIC) was 4 µg/mL (≈ 19.3 µM), the MIC (Streptococcus pyogenes; 1% plasma in MHB, read-out: MIC) was 4 µg/mL (≈ 19.3 µM) and the MIC (Streptococcus pyogenes; 2.5% plasma in MHB, read-out: MIC) was 8 µg/mL (≈ 38.6 µM). For the same compound, the MIC (Streptococcus pyogenes; 5% plasma in MHB, read-out: MIC) was 8 µg/mL (≈ 38.6 µM), the MIC (Streptococcus pyogenes; 10% plasma in MHB, read-out: MIC) was 16 µg/mL (≈ 77.2 µM) and the MIC (Streptococcus pyogenes; 20% plasma in MHB, read-out: MIC) was 32 µg/mL (≈ 154 µM). For the same compound, the MIC (Streptococcus pyogenes; 50% plasma in MHB, read-out: MIC) was 64 µg/mL (≈ 309 µM), the MMC (F. chlamydosporum) was 8 µg/mL and the MIC (F. chlamydosporum; read-out: MIC) was 8 µg/mL (≈ 38.6 µM). It also gave an MIC (Rhizopus stoloniefer; Rhizopus, read-out: MIC) of 4 µg/mL (≈ 19.3 µM), an MMC (Rhizopus stoloniefer) of 16 µg/mL and an MIC (Epidermophyton floccosum [8]; Epidermophyton floccosum) of 0.5 µg/mL (≈ 2.41 µM). For the same compound, the MMC (Epidermophyton floccosum [8]) was 16 µg/mL, the “Diameter of zone of Growth inhibition” value ([9]; Concentration in disc 0.1%) was 32# mm and the “Diameter of zone of Growth inhibition” value ([9]; Concentration in disc 1.0%) was 34# mm. For the same compound, the “Diameter of zone of Growth inhibition” value ([9]; Concentration in disc 2.0%) was 38# mm, the “Diameter of zone of Growth inhibition” value ([10]; Concentration in disc 0.1%) was 24# mm and the “Diameter of zone of Growth inhibition” value ([10]; Concentration in disc 1.0%) was 30# mm. The “Diameter of zone of Growth inhibition” value ([10]; Concentration in disc 2.0%) was 32# mm, the “Log reduction in viable count” value (Bacillus subtilis; 256 μg/mL) was 3.8 in 2 h and the “Log reduction in viable count” value (Bacillus subtilis; 512 μg/mL) was 4 in 2 h. For the same compound, the “Log reduction in viable count” value ([11]; 256 μg/mL) was 1 in 6 h, the “Log reduction in viable count” value ([11]; 512 μg/mL) was 1 in 6 h and the “Minimal % Compound (1) giving complete inhibition of test culture” value [12] was 0.015%. For the same compound, the “Minimal % Compound (1) giving complete inhibition of test culture” value [13] was 0.12%, the “Size of zone of retardation of the growth” value (from here on “Size”) (Staphylococcus aureus) was 6.5 and the “Size” value (Enterococcus faecalis) was 6. For the same compound, the “Size” value (Klebsiella pneumoniae) was 5, the MMC (C. jejuni 541-3) was 2 and the MMC (C. laniolis 54/6) was 2.
